Here are results for two molecules from patent US20250018019A1, “TREATMENT OF INTERFERON DRIVEN INFLAMMATION” (The Provost, Fellows, Foundation Scholars and the other …, priority 2023, published 2025).

The subject of the assay is BMDMs. Kind of assay: Proteomic analysis of BMDMs. The format is cell-based, mouse. The following applies: BMDMs pre-treated vs DMSO, LPS 4 h. The protocol:
BMDMs (from 5 independent mice) were plated onto 10-cm dishes and treated as indicated. At the experimental endpoint, cells were washed with PBS on ice and centrifuged at 1500 rpm for 5 mins at 4° C. and frozen at -80° C. Cell pellets were lysed, reduced and alkylated in 50 μl of 6M Gu-HCl, 200 mM Tris-HCl PH 8.5, 10 mM TCEP, 15 mM Chloroacetamide by probe sonication and heating to 95° C. for 5 min. Protein concentration was measured by a Bradford assay and initially digested with LysC (Wako) with an enzyme to substrate ratio of 1/200 for 4 h at 37° C. Subsequently, the samples were diluted tenfold with water and digested with porcine trypsin (Promega) at 37° C. overnight. Samples were acidified to 1% TFA, cleared by centrifugation (16,000 g at RT) and approximately 20 μg of the sample was desalted using a Stage-tip. Eluted peptides were lyophilized, resuspended in 0.1% TFA/water and the peptide concentration was measured by A280 on a nanodrop instrument (Thermo). The sample was diluted to 2 μg/5 μl for subsequent analysis. The tryptic peptides were analysed on a Fusion Lumos mass spectrometer connected to an Ultimate Ultra3000 chromatography system (both Thermo Scientific) incorporating an autosampler. 2 μg of de-salted peptides were loaded onto a 50 cm emitter packed with 1.9 μm ReproSil-Pur 200 C18-AQ (Dr Maisch, Germany) using a RSLC-nano uHPLC systems connected to a Fusion Lumos mass spectrometer (both Thermo, UK). Peptides were separated by a 140 min linear gradient from 5% to 30% acetonitrile, 0.5% acetic acid. […] Raw files were analysed and quantified by searching against the Uniprot Mus Musculus database using DIA-NN 1.8 (https://github.com/[…]). […] Data were expressed as mean±standard error of the mean (SEM) unless stated otherwise. […] The proteomics cut-offs for analysis were a log2FC of 0.5 and a false discovery rate (FDR)<0.05, determined using t statistics. […] Overrepresentation analysis (ORA) of significant changes were assessed using Enrichr^4 and the Bioconductor package clusterProfiler 4.0 in R (version 3.6.1). […]

Counter-ions that a name gives are not always drawn.

For the molecule `COC(=O)/C=C/C(=O)OC` [DMF, dimethyl fumarate], the “GDF15 protein (proteomics)” value is given as “one of the most significantly increased proteins”.
`CCOC(=O)[C@@]12CCCC=C1N(Cc1ccc(-c3ccccc3)cc1)C(=O)[C@H]2CC(=O)NC` [FHIN1, Fumarate hydratase-IN-1]: the “GDF15 protein (proteomics)” value was “one of the most significantly increased proteins” and the “SLC25A39 protein (proteomics)” value is “increased”.
